Laboratory results from US6458808B1, “Pharmaceutical composition for the treatment of cognitive cerebrovascular disease” (Osmotica Corp., priority 2000, dated 2002).

Experiments:
[1] = tested on: patients having either mild or very mild cognitive deterioration; test: Double-blind 16-week clinical trial (CDR, Barthel's, Folstein's tests, Global Clinical Impression); type: in vivo, human; conditions: for Global Clinic Impression: after 16-week treatment, code 1 highly worsened, 4 unchanged, 5 slightly improved, 6 improved, 7 highly improved; for BARTHEL's test, final mark / CDR test, final mark / FOLSTEIN's test, final mark: group average after 16-week treatment, twice a day; for FOLSTEIN's test, final mark: higher mark = favorable; for BARTHEL's test, initial mark / FOLSTEIN's test, initial mark / CDR test, initial mark: group average at baseline, before 16-week treatment; for CDR test, initial mark: twice a day oral
Description: Seventy nine patients having either mild or very mild cognitive deterioration with the following inclusion criterion:
Antecedents of ischaemic cerebrovascular pathology with symptoms or only with expression in brain computerized tomography (silent infarct). In case of focal or acute multimodal symptoms, at least a three-month period should elapse since symptoms evidence before being included in the tests.
Severity of cognitive deterioration was of the very mild or mild type CDR scale 0,5 and 1 (Clinical Dementia Rating).
Patients were selected from the Neurology area of four different hospitals. In each center a randomization list for parallel groups was established. Tablets in the three groups had the same aspect so as to preserve the double-blind characteristic of the study.
For diagnosis of cognitive deterioration and its association to ischaemic cerebrovascular disorders the criteria proposed in 1992 by the California University, USA, were used, in both their probable and possible forms.
The degree of severity of the cognitive disorder is limited to a borderline, mild condition, according to CDR scale in its points 0.5 and 1. A Hamilton test is carried out in order to detect a depressive condition, which shall contribute to the differential diagnosis of a pseudo dementia.
The Barthel index was used for evaluation of everyday life.
During the initial period a washing in medicine intake was made, in the weeks −4 to 0, the latter being the baseline for those drugs considered to be vasoactive or nootropic.
The observation period lasted 16 weeks, so patients were randomized in three groups which received as double-blind treatment:
Idebenone 45 mg, twice a day.
Nimodipine 30 mg, twice a day.
Idebenone 45 mg+Nimodipine 30 mg, twice a day.
Therapeutic efficacy criteria were based on the results of Folstein's, CDR and Barthel's scales and Global Clinical Impression (GCI). In order to evaluate therapeutic efficacy between the group receiving the combined dosage and the groups receiving the idebenone or nimodipine alone, a statistically significant improvement in one of the following criteria should exist: […]

[2] = oral, multiple doses of 45 or 100 mg, healthy volunteers; cited from earlier work
[3] = in vivo; cited from earlier work

| SMILES | Global Clinic Impression [1] | BARTHEL's test, final mark [1] | CDR test, final mark [1] | FOLSTEIN's test, final mark [1] | BARTHEL's test, initial mark [1] | FOLSTEIN's test, initial mark [1] | CDR test, initial mark [1] | accumulation after repeated doses [2] | delivery to tissues [3] |
| --- | --- | --- | --- | --- | --- | --- | --- | --- | --- |
| COC1=C(OC)C(=O)C(CCCCCCCCCCO)=C(C)C1=O [Group A, 6-(10-hydroxydecil)-2,3-dimethoxy-5-methyl-1,4-benzoquinone] | 5.0 | 87.6 | 0.64 | 24.8 | 87.2 | 22.8 | 0.68 | Accumulation does not occur | widely delivered to different tissues, including the brain |
| COCCOC(=O)C1=C(C)NC(C)=C(C(=O)OC(C)C)C1c1cccc([N+](=O)[O-])c1 (stereo not shown) [Group B, 1,4-dyhidro-5-(isopropoxycarbonyl)-2,6-dimethyl-4-(3-nitrophenyl)-3-pyridine-carboxylate of 2-methoxyethyl] | 4.9 | 81.1 | 0.63 | 23.9 | 80.7 | 22.5 | 0.67 | – | – |
